Source: ChEMBL document CHEMBL5346863, “Discovery of substituted benzyloxy-benzylamine inhibitors of acetyltransferase Eis and their anti-mycobacterial activity” (Eur J Med Chem, 2022)
Converted amounts (≈) assume the structure as drawn.

System: Mycobacterium tuberculosis variant bovis
Experiment: Antibacterial activity against Mycobacterium bovis BCG ATCC 35734 assessed as bacterial growth inhibition incubated for 2 to 3 weeks by resazurin dye based assay
Format: functional
Details: time 2-3 weeks

Row | SMILES | MIC
1 | Brc1ccccc1COc1ccc(CNCc2ccccc2)cc1 | 7.8 µM (≈ 2.98 µg/mL)
2 | Fc1ccc(COc2ccc(CNCc3ccncc3)cc2)cc1 | 62.5 µM (≈ 20.1 µg/mL)
3 | Fc1ccc(COc2ccccc2CNCc2cccnc2)cc1 | > 62.5 µM
4 | Fc1ccc(COc2cccc(CNCc3ccccc3)c2)cc1 | 7.8 µM (≈ 2.51 µg/mL)
5 | c1ccc(CNCc2ccc(OCc3ccc(-c4ccccc4)cc3)cc2)cc1 | 3.9 µM (≈ 1.48 µg/mL)
6 | c1ccc(COc2ccc(CNCc3ccncc3)cc2)cc1 | > 62.5 µM
7 | c1ccc(COc2ccccc2CNCc2cccnc2)cc1 | > 62.5 µM
8 | c1ccc(COc2ccccc2CNCc2ccncc2)cc1 | > 62.5 µM
9 | Clc1cccc(COc2ccccc2CNCc2ccccc2)c1 | 15.6 µM (≈ 5.27 µg/mL)
10 | Brc1ccc(COc2ccccc2CNCc2cccnc2)cc1 | 62.5 µM (≈ 24 µg/mL)
11 | CC(C)(C)c1ccc(COc2ccc(CNCc3ccccc3)cc2)cc1 | 2 µM (≈ 0.719 µg/mL)
12 | Clc1cccc(COc2ccccc2CNCc2cccnc2)c1 | 62.5 µM (≈ 21.2 µg/mL)
13 | Brc1ccc(COc2ccc(CNCc3ccccc3)cc2)cc1 | 3.9 µM (≈ 1.49 µg/mL)
14 | Cc1ccc(COc2ccc(CNCc3ccccc3)cc2)cc1 | 3.9 µM (≈ 1.24 µg/mL)
15 | Clc1ccc(COc2ccccc2CNCc2ccccc2)cc1 | 62.5 µM (≈ 21.1 µg/mL)
16 | Brc1ccc(COc2ccccc2CNCc2ccncc2)cc1 | 62.5 µM (≈ 24 µg/mL)
17 | Clc1ccc(COc2ccccc2CNCc2ccncc2)cc1 | 62.5 µM (≈ 21.2 µg/mL)
18 | Fc1ccc(COc2ccc(CNCc3ccccc3)cc2)cc1 | > 62.5 µM
19 | c1ccc(COc2ccc(CNCc3cccnc3)cc2)cc1 | > 62.5 µM

Row | SMILES | MIC
20 | c1ccc(CNCc2ccccc2OCc2ccccc2)cc1 | 62.5 µM (≈ 19 µg/mL)
21 | Clc1ccc(COc2cccc(CNCc3ccncc3)c2)cc1 | 62.5 µM (≈ 21.2 µg/mL)
22 | Clc1ccc(COc2ccc(CNCc3ccccc3)cc2)cc1 | 7.8 µM (≈ 2.64 µg/mL)
23 | c1ccc(CNCc2ccc(OCc3ccccc3)cc2)cc1 | 31.3 µM (≈ 9.5 µg/mL)
24 | NNC(=O)c1ccncc1 [ISONIAZID] | ≤ 0.25 µM
25 | Fc1ccc(COc2ccc(CNCc3cccnc3)cc2)cc1 | 62.5 µM (≈ 20.1 µg/mL)
26 | Brc1ccc(COc2ccccc2CNCc2ccccc2)cc1 | 62.5 µM (≈ 23.9 µg/mL)
27 | CC(C)c1ccc(COc2ccc(CNCc3ccccc3)cc2)cc1 | 1 µM (≈ 0.345 µg/mL)
28 | COc1ccc(COc2ccc(CNCc3ccccc3)cc2)cc1 | 7.8 µM (≈ 2.6 µg/mL)
29 | Clc1ccc(COc2cccc(CNCc3cccnc3)c2)cc1 | 62.5 µM (≈ 21.2 µg/mL)
30 | Clc1ccc(COc2ccc(CNCc3cccnc3)cc2)cc1 | 62.5 µM (≈ 21.2 µg/mL)
31 | Brc1cccc(COc2ccc(CNCc3ccccc3)cc2)c1 | 7.8 µM (≈ 2.98 µg/mL)
32 | Fc1ccc(COc2cccc(CNCc3cccnc3)c2)cc1 | > 62.5 µM
33 | Clc1ccc(COc2ccc(CNCc3ccncc3)cc2)cc1 | 31.3 µM (≈ 10.6 µg/mL)
34 | Clc1ccc(COc2cccc(CNCc3ccccc3)c2)cc1 | 7.8 µM (≈ 2.64 µg/mL)
35 | Fc1ccc(COc2ccccc2CNCc2ccccc2)cc1 | > 62.5 µM
36 | Fc1ccc(COc2cccc(CNCc3ccncc3)c2)cc1 | > 62.5 µM
37 | Clc1cccc(COc2ccccc2CNCc2ccncc2)c1 | > 62.5 µM
